# Data reported in paper PMC7689490, “Designed CXCR4 mimic acts as a soluble chemokine receptor that blocks atherogenic inflammation by agonist-specific targeting” (Nature Communications, 2020).
# Where “and” joins values, the source holds several entries; their conditions need not be identical. Identical values can stand only once. Entries after “also recorded” stand apart in the source; their conditions may differ.
# Columns and labels:
# [1] = tested on: human CXCR4; experiment: MIF-triggered CXCR4-specific signaling in yeast (lacZ read-out); assay type: cell-based; conditions: co-incubation with MIF
# Procedure: (§1) Briefly, yeast transformants stably expressing human CXCR4 were grown overnight at 30 °C in yeast nitrogen base selective medium (Formedium, UK). Cells were diluted to an OD600 of 0.2 and grown to an OD600 of 0.3–0.6. […] OD600 was measured and activation of CXCR4 signaling quantified by β-galactosidase activity using a commercial BetaGlo Kit (Promega, Mannheim, Germany).
# [2] = tested on: human CXCR4; experiment: CXCL12-triggered CXCR4-specific signaling in yeast (lacZ read-out); assay type: cell-based
# Procedure: as §1
# [3] = tested on: primary mouse spleen B lymphocytes; experiment: MIF-triggered Transwell chemotaxis of primary splenic B cells;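 on all read-outs here: migration tracked over 4 h at 37 °C, read out as transmigrated cells counted by flow cytometry with absolute counting beads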; assay type: cell-based; conditions: for MIF-elicited chemotaxis: Suppl. Fig. 15b, individual replicates, n = 4
# Procedure: Briefly, splenic B cells were isolated by negative depletion using a Pan B Cell Isolation Kit (Miltenyi Biotec, Bergisch Gladbach, Germany). […] Chemotaxis was followed for 4 h at 37 °C in a humidified atmosphere of 5% CO2. Migrated cells were counted by flow cytometry using CountBright™ Absolute Counting Beads (Molecular Probes-Invitrogen).
# [4] = tested on: pAMPK/AMPK in HCM; experiment: MIF/CD74-triggered AMPK signaling in human cardiomyocytes (HCM); assay type: cell-based
# Procedure: HCMs (2 × 10^5 per well) were plated in 12-well plates and maintained for 2 days with cultured medium containing 5% FCS. Before stimulation, medium was replaced by fresh myocyte basal medium containing 0.05% FCS and HCMs rested for 16 h. Surface CD74 expression on HCMs was verified by flow cytometry (FITC-conjugated anti-human CD74 (1:100 dilution), FITC-IgG2 (isotype control) (BD Pharmingen), 1 h/4 °C in the dark, BD FACSVerse™ flow cytometer, FlowJo software). […] After treatment, cells were lysed and subjected to SDS-PAGE (10%)/Western blotting using NuPAGE® lithium dodecyl sulfate (LDS)/dithiothreitol (DTT) lysis buffer-containing PhosSTOP^TM reagent (Roche Applied Science). […] Anti-rabbit horse-radish peroxidase (HRP)-conjugated antibody (1:10000, GE Healthcare, Freiburg, Germany) was used for development and signals quantitated by chemiluminescence using an Odyssey® Fc imager. Unprocessed scans of the Western blots are supplied in the Source Data file.
# [5] = tested on: primary human monocyte-derived macrophages; experiment: MIF-mediated DiI-LDL uptake / foam cell formation; assay type: cell-based; conditions: 80 nM MIF
# Procedure: After washing with imaging solution (MEM without phenol red containing 30 mM HEPES, 0.5 g/L NaHCO3, pH 7.4, and 0.2% BSA), cells were exposed to 50 µg mL^−1 1,1′-dioctadecyl-3,3,3′3′-tetramethylindocarbocyanine-labeled oxidized LDL (DiI-oxLDL) or DiI-labeled native LDL (DiI-LDL) for 30 min at 4 °C, followed by incubation at 37 °C for 20 min. Cells were washed with ice-cold imaging solution (pH 3.5), fixed, and counter-stained with Hoechst 33258.
# [6] = tested on: MonoMac-6 / HAoEC; experiment: MIF-induced static adhesion of MonoMac-6 monocytes to HAoECs; assay type: cell-based, human
# Procedure: HAoECs were seeded at a density of 30,000 cells/well in 6 well µ-Ibidi Perfusion slides VI 0.4 (Ibidi GmbH). […] After perfusion of the chambers with fresh medium, MonoMac6 cells (1 × 10^6 cells mL^−1) in PromoCell medium were added for 30 min. Non-adhering cells were flushed away by gentle perfusion using a 30 mL syringe. To quantify adherent monocytes, seven individual images (technical triplicates each) from each treatment were acquired using a Leica DMi8 inverted microscope with a ×10 objective and cells quantified using ImageJ.
# [7] = tested on: carotid arteries of Apoe−/− mice; experiment: Leukocyte adhesion in ex vivo mounted atherosclerotic carotid arteries under flow (MPM); parameters: species or system mouse
# Procedure: Monocyte adhesion experiments in atherosclerotic carotid arteries under physiological flow conditions ex vivo have been established[14],[75] and were performed by a slight modification of this procedure. Briefly, seven-week-old Apoe^−/− mice were fed a Western-type HFD (0.2% cholesterol) for 12 weeks. […] On day 3, arteries were prepared and mounted into an arteriograph chamber. […] Mouse leukocytes isolated from the bone marrow of msR4M-L1- or vehicle-treated atherogenic Apoe^−/− mice were stained with fluorescent Green CMFDA or Red CMPTX (Thermo Fisher Scientific). […] The red- and green-stained cell pools were mixed at a 1:1 ratio and 3 × 10^6 cells in 6 mL perfused into the artery of msR4M-L1- or vehicle-treated mice, respectively. Arteries were scanned by MPM using a multispectral TCS SP8 DIVE instrument with filter-free 4TUNE NDD detection module (Leica) and the number of adherent and transmigrated leukocytes determined by scanning multiphoton excitation. Vessel structure (and plaques) were visualized by second harmonic generation (SHG). Image acquisition, visualization, and processing was performed using the LAS X SP8 software package with LAS X 3D visualization and analysis (Leica) and LAS X HyVolution 2 packages from Leica/SVI Huygens, (Laapersveld, NL).
# [8] = tested on: Apoe−/− mice on HFD; experiment: In vivo model of atherosclerosis (lesions, lesional macrophages, tolerability)
# Procedure: Seven-eight-week-old female Apoe^−/− mice were randomly divided into two groups of 11–12 mice each and both groups put on a Western-type HFD (0.21% cholesterol) for 4.5 weeks. Mice develop early-to-intermediate atherosclerotic lesions in this model. […] At the end of the experiment, mice were sacrificed, blood collected by cardiac puncture and saved for blood cell and lipid measurements and mice transcardially perfused with saline. Hearts, proximal aortas and carotid arteries were prepared and fixed for plaque morphometry and lesion analysis.
# Quantification of plaques and vessel morphometry (ORO and H&E staining). Cut heart tissues containing aortic root were embedded in Tissue Tek optimum cutting temperature (OCT) substance (Sakura Finetek, Osaka, Japan) and frozen at −80 °C. Eight-µm sections were prepared for ORO staining and plaque immune cell analysis. The accumulation of macrophages in aortic root lesions was determined by an anti-MAC-2 antibody (1:100 dilution) followed by Cy5-conjugated secondary antibody. Nuclei were visualized with DAPI. The aortic arch was cut, fixed in 4% paraformaldehyde (PFA) and embedded in paraffin. Four-µm sections containing the three branches (brachiocephalic, left common carotid, and left subclavian artery) were prepared and stained with hematoxylin/eosin (H&E) for vessel morphometry. Images were captured with a Leica DMi8 microscope and quantified using ImageJ.
# [9] = tested on: circulating inflammatory cytokines; experiment: Plasma cytokine array in treated Apoe−/− mice; assay type: in vivo, mouse; conditions: reductions for IL-1α, IL-16, TNF-α, CXCL13/BLC; 6 vs 6 mice
# Procedure: Plasma samples were diluted (1:10) in array buffer; incubated with antibody detection cocktail for 1 h at RT, exposed to the blocked membranes (overnight, 4 °C), membranes washed and incubated with streptavidin-HRP conjugate working solution (30 min, RT). Membranes were developed with Chemi-Reagent Mix and analyzed by Odyssey® Fc imager. The average signal (mean signal intensity) of duplicate spots was quantified by ImageJ.
# [10] = mouse, in vivo
# [11] = in vivo; conditions: C57BL/6, mouse, ip, 50 ug per mouse
# Procedure: Plasma was immediately separated by centrifugation at 3000 rpm for 10 min at 4 °C, and placed on ice protected from light. Plasma aliquots were diluted (1:1) with SDS-PAGE sample buffer, boiled, analyzed in 10–20% Tricine SDS-PAGE gels, and red fluorescent bands imaged by Odyssey® Fc imager.
structure (smiles),measurement,setting,value
"CC[C@H](C)[C@H](NC(=O)[C@H](Cc1ccc(O)cc1)NC(=O)[C@H](CCCNC(=N)N)NC(=O)[C@H](CC(=O)O)NC(=O)CCCCCCCCCCCNC(=O)CCCCCNC(=O)[C@H](CCCCN)NC(=O)[C@H](CS)NC(=O)[C@H](CC(C)C)NC(=O)[C@H](Cc1ccccc1)NC(=O)[C@H](CC(N)=O)NC(=O)CNC(=O)[C@H](Cc1ccccc1)NC(=O)[C@H](Cc1ccc(O)cc1)NC(=O)[C@H](Cc1c[nH]c2ccccc12)NC(=O)[C@H](CC(N)=O)NC(=O)[C@H](C)NC(=O)[C@@H](NC(=O)[C@H](C)NC(=O)[C@@H](N)CC(=O)O)C(C)C)C(=O)N[C@@H](CS)C(=O)N[C@@H](CC(=O)O)C(=O)N[C@@H](CCCNC(=N)N)C(=O)N[C@@H](Cc1ccccc1)C(=O)N[C@@H](Cc1ccc(O)cc1)C(=O)N1CCC[C@H]1C(=O)N[C@@H](CC(N)=O)C(=O)N[C@@H](CC(=O)O)C(=O)N[C@@H](CC(C)C)C(=O)N[C@@H](Cc1c[nH]c2ccccc12)C(=O)N[C@H](C(N)=O)C(C)C [msR4M-L1, CXCR4-ECL1[97–110]-6-Ahx-12-Ado-ECL2[182–196]]",effect on MIF-triggered CXCR4 reporter signal,[1],blocked the β-galactosidase reporter signal in a concentration-dependent manner
same,effect on CXCL12/CXCR4-elicited signaling,[2],remained unaffected
same,inhibition of MIF-mediated B-cell chemotaxis,"[3]; 16 nM MIF, peptide at 5-fold molar excess (80 nM)",fully blocked
same,MIF-elicited chemotaxis,[3]; log(msR4M-L1) (M) = -6.495,1.49 and 1 and 1.46 and 1.55
same,MIF-elicited chemotaxis,[3]; log(msR4M-L1) (M) = -6.796,1.24 and 1.03 and 1.49 and 1.3
same,MIF-elicited chemotaxis,[3]; log(msR4M-L1) (M) = -7.097,1.2 (3×) and 1.12
same,MIF-elicited chemotaxis,[3]; log(msR4M-L1) (M) = -7.495,1.18 and 1.24 and 2 and 1.77
same,MIF-elicited chemotaxis,[3]; log(msR4M-L1) (M) = -7.796,1.67 (2×) and 2.32 and 1.89
same,MIF-elicited chemotaxis,[3]; log(msR4M-L1) (M) = -10,2.52 and 2.18 and 3 and 2.83
same,effect on MIF-upregulated pAMPK levels,[4],not attenuated
same,inhibition of MIF-mediated DiI-LDL uptake,[5],"dose-dependently inhibited; also recorded: slightly better than that of ISO-1, but lower than that of NIH/IIID.9"
same,"effect on MIF-induced static monocyte adhesion, TNF-α-prestimulated HAoECs","[6]; 40 pM TNF-α pre-treatment, 320 nM msR4M-L1",abrogated the effect of MIF
same,"effect on MIF-induced static monocyte adhesion, resting HAoECs","[6]; 16 nM MIF, 320 nM msR4M-L1, 16 h",blocked the pro-adhesion effect of MIF
same,"Fig. 5a, MIF-induced monocyte adhesion","[6]; MIF + msR4M-L1, individual replicates, n = 4",56.3 and 56.9 and 61.4 and 42.3
same,number of luminally adhering leukocytes,"[7]; msR4M-L1 100 µg once daily for 3 days before vessel harvest, 5–6 carotid arteries per group",significantly reduced
same,"Fig. 5l, leukocyte adhesion in ex vivo mounted carotid arteries","[7]; msR4M-L1 group, individual values, n = 6",12 and 45 and 36 and 16 and 32
same,toxicity or side effects,[8]; 50 µg i.p. for 4.5 weeks,No toxicity or side effects were noted
same,atherosclerotic lesion size in aortic arch,"[8]; Apoe−/− mice, HFD 4.5 weeks, 50 µg (2.5 mg kg^−1) i.p. three times per week, HE, 7 vs 7 mice",significantly decreased
same,Lesion area (x10to3 µm2),"[8]; Fig. 6g, msR4M-L1-treated animals, per animal, n = 11",184.774 x10to3 µm2 and 104.198 x10to3 µm2 and 151.257 x10to3 µm2 and 126.04 x10to3 µm2 and 45.213 x10to3 µm2 and 130.67 x10to3 µm2 and 89.727 x10to3 µm2 and 63.265 x10to3 µm2 and 177.705 x10to3 µm2 and 117.601 x10to3 µm2 and 70.989 x10to3 µm2
same,"number of lesional macrophages, MAC-2 staining","[8]; as E123, 11 vs 12 mice",significantly decreased
same,atherosclerotic lesion size in aortic root,"[8]; as E123, ORO, 12 vs 12 mice",significantly decreased
same,circulating inflammatory cytokine levels,[9],marked reduction
same,Body weight,[10],22.3 ± 0.2 g
same,level at time molar,[11],20 to 50 nM
